PubChem BioAssay (NCI)
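Five concentrations, 48 hours, 96-well plates. Definition used: TGI = concentration required for complete inhibition of growth.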

Legend:
Test in all cases: NCI-60 cell line screen, 48 h
786-0 renal = test system: 786-0 renal
A498 renal = test system: A498 renal
A549 NSCLC = test system: A549 NSCLC
ACHN renal = test system: ACHN renal
BT-549 breast = test system: BT-549 breast
CCRF-CEM leukemia = test system: CCRF-CEM leukemia
COLO 205 colon = test system: COLO 205 colon
EKVX NSCLC = test system: EKVX NSCLC
HCC-2998 colon = test system: HCC-2998 colon
HCT-116 colon = test system: HCT-116 colon
HCT-15 colon = test system: HCT-15 colon
HL-60(TB) leukemia = test system: HL-60(TB) leukemia
HOP-62 NSCLC = test system: HOP-62 NSCLC
HOP-92 NSCLC = test system: HOP-92 NSCLC
HS 578T breast = test system: HS 578T breast
HT29 colon = test system: HT29 colon
IGROV1 ovarian = test system: IGROV1 ovarian
K-562 leukemia = test system: K-562 leukemia
KM12 colon = test system: KM12 colon
LOX IMVI melanoma = test system: LOX IMVI melanoma
M14 melanoma = test system: M14 melanoma
MALME-3M melanoma = test system: MALME-3M melanoma
MCF7 breast = test system: MCF7 breast
MDA-MB-231 breast = test system: MDA-MB-231 breast
MDA-MB-435 = test system: MDA-MB-435
MDA-N = test system: MDA-N
MOLT-4 leukemia = test system: MOLT-4 leukemia
NCI-H226 lung = test system: NCI-H226 lung
NCI-H23 lung = test system: NCI-H23 lung
NCI-H460 lung = test system: NCI-H460 lung
NCI-H522 lung = test system: NCI-H522 lung
NCI/ADR-RES ovarian = test system: NCI/ADR-RES ovarian
OVCAR-3 ovarian = test system: OVCAR-3 ovarian
OVCAR-4 ovarian = test system: OVCAR-4 ovarian
OVCAR-5 ovarian = test system: OVCAR-5 ovarian
OVCAR-8 ovarian = test system: OVCAR-8 ovarian
PC-3 prostate = test system: PC-3 prostate
RPMI-8226 leukemia = test system: RPMI-8226 leukemia
RXF 393 renal = test system: RXF 393 renal
SF-268 CNS = test system: SF-268 CNS
SF-295 CNS = test system: SF-295 CNS
SF-539 CNS = test system: SF-539 CNS
SK-MEL-2 melanoma = test system: SK-MEL-2 melanoma
SK-MEL-28 melanoma = test system: SK-MEL-28 melanoma
SK-MEL-5 melanoma = test system: SK-MEL-5 melanoma
SK-OV-3 ovarian = test system: SK-OV-3 ovarian
SNB-19 CNS = test system: SNB-19 CNS
SNB-75 CNS = test system: SNB-75 CNS
SR leukemia = test system: SR leukemia
SW-620 colon = test system: SW-620 colon
T-47D breast = test system: T-47D breast
TK-10 renal = test system: TK-10 renal
U251 CNS = test system: U251 CNS
UACC-257 melanoma = test system: UACC-257 melanoma
UACC-62 melanoma = test system: UACC-62 melanoma
UO-31 renal = test system: UO-31 renal
CAKI-1 renal = test system: CAKI-1 renal
DU-145 prostate = test system: DU-145 prostate

## O=C(O)c1ccccc1/C=N/NC1=NCCCCN1
786-0 renal
  TGI: > 100 µM
A498 renal
  TGI: > 100 µM
A549 NSCLC
  TGI: > 100 µM
ACHN renal
  TGI: > 100 µM
BT-549 breast
  TGI: > 100 µM
CCRF-CEM leukemia
  TGI: > 100 µM
COLO 205 colon
  TGI: > 100 µM
EKVX NSCLC
  TGI: > 100 µM
HCC-2998 colon
  TGI: > 100 µM
HCT-116 colon
  TGI: > 100 µM
HCT-15 colon
  TGI: > 100 µM
HL-60(TB) leukemia
  TGI: > 100 µM
HOP-62 NSCLC
  TGI: > 100 µM
HOP-92 NSCLC
  TGI: > 100 µM
HS 578T breast
  TGI: > 100 µM
HT29 colon
  TGI: > 100 µM
IGROV1 ovarian
  TGI: > 100 µM
K-562 leukemia
  TGI: > 100 µM
KM12 colon
  TGI: > 100 µM
LOX IMVI melanoma
  TGI: > 100 µM
M14 melanoma
  TGI: > 100 µM
MALME-3M melanoma
  TGI: > 100 µM
MCF7 breast
  TGI: > 100 µM
MDA-MB-231 breast
  TGI: > 100 µM
MDA-MB-435
  TGI: > 100 µM
MDA-N
  TGI: > 100 µM
MOLT-4 leukemia
  TGI: > 100 µM
NCI-H226 lung
  TGI: > 100 µM
NCI-H23 lung
  TGI: > 100 µM
NCI-H460 lung
  TGI: > 100 µM
NCI-H522 lung
  TGI: > 100 µM
NCI/ADR-RES ovarian
  TGI: > 100 µM
OVCAR-3 ovarian
  TGI: > 100 µM
OVCAR-4 ovarian
  TGI: > 100 µM
OVCAR-5 ovarian
  TGI: > 100 µM
OVCAR-8 ovarian
  TGI: > 100 µM
PC-3 prostate
  TGI: > 100 µM
RPMI-8226 leukemia
  TGI: > 100 µM
RXF 393 renal
  TGI: > 100 µM
SF-268 CNS
  TGI: > 100 µM
SF-295 CNS
  TGI: > 100 µM
SF-539 CNS
  TGI: > 100 µM
SK-MEL-2 melanoma
  TGI: > 100 µM
SK-MEL-28 melanoma
  TGI: > 100 µM
SK-MEL-5 melanoma
  TGI: > 100 µM
SK-OV-3 ovarian
  TGI: > 100 µM
SNB-19 CNS
  TGI: > 100 µM
SNB-75 CNS
  TGI: > 100 µM
SR leukemia
  TGI: > 100 µM
SW-620 colon
  TGI: > 100 µM
T-47D breast
  TGI: > 100 µM
TK-10 renal
  TGI: > 100 µM
U251 CNS
  TGI: > 100 µM
UACC-257 melanoma
  TGI: > 100 µM
UACC-62 melanoma
  TGI: > 100 µM
UO-31 renal
  TGI: > 100 µM

## O=C(Nc1ccccc1F)c1cc2ccc(O)cc2oc1=Nc1cccc(C(F)(F)F)c1
786-0 renal
  TGI: 17.8 µM
A498 renal
  TGI: 38.3 µM
A549 NSCLC
  TGI: > 100 µM
ACHN renal
  TGI: 19.4 µM
BT-549 breast
  TGI: 8.42 µM
CAKI-1 renal
  TGI: 19.7 µM
CCRF-CEM leukemia
  TGI: 4.79 µM
COLO 205 colon
  TGI: 33 µM
DU-145 prostate
  TGI: > 100 µM
EKVX NSCLC
  TGI: 10.6 µM
HCC-2998 colon
  TGI: > 100 µM
HCT-116 colon
  TGI: 18.1 µM
HCT-15 colon
  TGI: 10.9 µM
HL-60(TB) leukemia
  TGI: 4.84 µM
HOP-62 NSCLC
  TGI: 53.7 µM
HS 578T breast
  TGI: 7.75 µM
HT29 colon
  TGI: > 100 µM
IGROV1 ovarian
  TGI: 5.54 µM
K-562 leukemia
  TGI: > 100 µM
KM12 colon
  TGI: 26.8 µM
LOX IMVI melanoma
  TGI: 6.52 µM
M14 melanoma
  TGI: 26 µM
MALME-3M melanoma
  TGI: 34.9 µM
MCF7 breast
  TGI: > 100 µM
MDA-MB-435
  TGI: 22.7 µM
MDA-N
  TGI: > 100 µM
MOLT-4 leukemia
  TGI: 67.8 µM
NCI-H23 lung
  TGI: 4.44 µM
NCI-H460 lung
  TGI: > 100 µM
NCI-H522 lung
  TGI: 18.7 µM
NCI/ADR-RES ovarian
  TGI: 9.93 µM
OVCAR-3 ovarian
  TGI: > 100 µM
OVCAR-4 ovarian
  TGI: 12.9 µM
OVCAR-5 ovarian
  TGI: > 100 µM
OVCAR-8 ovarian
  TGI: 5.27 µM
PC-3 prostate
  TGI: > 100 µM
RPMI-8226 leukemia
  TGI: > 100 µM
SF-268 CNS
  TGI: 13.2 µM
SF-295 CNS
  TGI: > 100 µM
SF-539 CNS
  TGI: 22.3 µM
SK-MEL-2 melanoma
  TGI: 36 µM
SK-MEL-28 melanoma
  TGI: 40.7 µM
SK-MEL-5 melanoma
  TGI: 4.91 µM
SK-OV-3 ovarian
  TGI: 35.2 µM
SNB-19 CNS
  TGI: > 100 µM
SR leukemia
  TGI: 17.7 µM
SW-620 colon
  TGI: > 100 µM
T-47D breast
  TGI: 15.8 µM
U251 CNS
  TGI: 19.3 µM
UACC-257 melanoma
  TGI: > 100 µM
UACC-62 melanoma
  TGI: 21 µM
UO-31 renal
  TGI: 15.5 µM
